Test results as given in patent US20220226280A1, “COMPOSITIONS AND METHODS FOR INCREASED GLUCOSE UPTAKE AND FAT METABOLISM” (Board of Supervisors of Louisiana State University and …, priority 2017, published 2022).
Read-outs that look alike come from different tables or passages of the source.

How the values were obtained:
[1] = tested on: UCP1 mRNA; assay: UCP1 mRNA induction in differentiated human adipocytes (Taqman RT-PCR); assay type: cell-based; settings: for UCP1 expression in comparison with flavonoid alone: flavonoid 5 μM combined with 20 μM menthol, 7 day treatment
Method: (§1) Gene expression was analyzed using Taqman RT-PCR and values are expressed as fold increase over untreated controls (n=5).
Gene expression was analyzed using Taqman RT-PCR and values are expressed as fold increase over untreated controls.
To determine the lowest concentrations with efficacy to induce UCP1 mRNA in human adipocytes over a 7 day time period, cells were treated with multiple concentrations of menthol combined with naringenin at 5 μM (FIG. 6).

[2] = tested on: GLUT4 mRNA; assay: GLUT4 mRNA induction in differentiated human adipocytes (Taqman RT-PCR); assay type: cell-based; settings: human subcutaneous adipocyte cultures
Method: as §1
Gene expression was analyzed using Taqman RT-PCR and values are expressed as fold increase over untreated controls. Naringenin and Menthol v. Control: p=0.008, Naringenin and Menthol v. Naringenin: p=0.01. Naringenin and Menthol v. Menthol: p<0.001, Naringenin v. Control: p>0.05, Menthol v. Control: p>0.05.
(§2) UCP1 mRNA levels increased 4-8 fold in human subcutaneous adipocytes treated from 4-7 days with Naringenin at a concentration of 10 μM, the Cmax detected in human plasma after intake of citrus beverages (FIG. 1) (Kanaze, F. I., et al., Eur J Clin Nutr, 2007 61(4):472-7).

[3] = tested on: carnitine palmitoyltransferase 1 (CPT-1); assay: CPT-1 induction in human subcutaneous adipocyte cultures; assay type: cell-based
Method: as §1, §2

[4] = tested on: Pgc-1α; assay: Pgc-1α expression in human subcutaneous adipocytes; assay type: cell-based; settings: Naringenin 10 μM
Method: as §1, §2

[5] = tested on: TRPM8 receptor; assay: TRPM8 receptor expression in human adipocytes; assay type: cell-based; settings: 10 μM Naringenin alone
[6] = tested on: HEK293 cells; settings: cited from earlier work
[7] = cited from earlier work
[8] = cited from earlier work; remark: listed apart in the source
[9] = molecular target: TRPM8 (Homo sapiens, UniProt Q7Z2W7); settings: cited from earlier work
TRPM8, sequence (Q7Z2W7 whole entry, species assumed): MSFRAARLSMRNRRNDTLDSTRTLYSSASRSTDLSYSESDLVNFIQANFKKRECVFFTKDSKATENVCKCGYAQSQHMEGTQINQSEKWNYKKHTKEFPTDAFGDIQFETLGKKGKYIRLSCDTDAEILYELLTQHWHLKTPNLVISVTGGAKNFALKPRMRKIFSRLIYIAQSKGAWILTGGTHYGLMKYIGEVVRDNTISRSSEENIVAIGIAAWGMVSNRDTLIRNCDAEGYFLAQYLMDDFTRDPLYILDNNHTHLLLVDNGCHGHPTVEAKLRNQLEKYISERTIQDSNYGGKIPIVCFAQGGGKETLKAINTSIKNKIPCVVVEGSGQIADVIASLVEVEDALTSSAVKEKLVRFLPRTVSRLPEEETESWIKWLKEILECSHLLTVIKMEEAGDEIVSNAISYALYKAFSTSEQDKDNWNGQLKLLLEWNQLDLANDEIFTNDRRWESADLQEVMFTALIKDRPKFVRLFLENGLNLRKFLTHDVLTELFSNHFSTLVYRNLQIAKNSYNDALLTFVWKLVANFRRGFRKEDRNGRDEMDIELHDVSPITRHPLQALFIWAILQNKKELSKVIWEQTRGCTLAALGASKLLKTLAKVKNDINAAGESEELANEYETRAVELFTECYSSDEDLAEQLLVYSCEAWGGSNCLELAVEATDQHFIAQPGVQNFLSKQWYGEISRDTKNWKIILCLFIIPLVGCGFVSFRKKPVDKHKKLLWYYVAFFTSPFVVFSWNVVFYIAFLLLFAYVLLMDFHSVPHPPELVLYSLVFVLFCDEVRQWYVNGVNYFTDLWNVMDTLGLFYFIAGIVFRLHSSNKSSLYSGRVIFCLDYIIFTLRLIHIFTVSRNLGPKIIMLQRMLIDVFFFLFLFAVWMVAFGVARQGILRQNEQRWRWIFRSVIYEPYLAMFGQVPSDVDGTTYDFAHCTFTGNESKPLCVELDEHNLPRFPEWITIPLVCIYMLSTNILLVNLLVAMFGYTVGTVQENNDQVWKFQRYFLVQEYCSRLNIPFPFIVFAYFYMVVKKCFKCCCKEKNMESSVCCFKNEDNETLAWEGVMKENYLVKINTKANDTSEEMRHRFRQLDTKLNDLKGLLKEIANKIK

[10] = tested on: UCP1 expression; settings: cited from earlier work
[11] = tested on: Ucp1 expression; settings: brown adipocytes from mice; cited from earlier work

With `O=C1C[C@@H](c2ccc(O)cc2)Oc2cc(O)cc(O)c21` (stereo in doubt) [Naringenin, 2,3-dihydro-5,7-dihydroxy-2-(4-hydroxyphenyl)-4H-1-benzopyran-4-one] the “UCP1 mRNA levels increased” value ([1]; Naringenin 10 μM, 4-7 days, human subcutaneous adipocytes) was 4-8 fold, the “induction of brown adipocyte marker UCP1” value ([1]; human subcutaneous adipocyte cultures) was “significantly induces” and the “induction of brown adipocyte marker GLUT4” value [2] was “significantly induces”. The “induction of brown adipocyte marker CPT-1” value [3] was “significantly induces”, the “increase in transcriptional activator Pgc-1α” value [4] was “No increases were observed” and the “increase in TRPM8 receptor expression” value [5] was 4 fold. For the same molecule, the “toxicity to cells (maximum concentration)” value [6] was 12.5 µM, the Cmax ([7]; human plasma/serum after intake of citrus beverages, read-out: Cmax) was 10 µM and the solubility ([8]; aqueous solutions) was “sparingly soluble”. For the same molecule, the solubility ([8]; ethanol, ether, oils (e.g., olive oil or citrus oil) and supercritical carbon dioxide) was “soluble”.

With `CC12CCC(CC1)C(C)(C)O2` [Eucalyptol] the “UCP1 mRNA expression versus naringenin alone” value ([1]; eucalyptol at 100 μM and 200 μM in combination with Naringenin 5 μM, 7 d) was “did not increase UCP1 mRNA expression above the level observed with naringenin alone”.

For `COc1ccc([C@@H]2CC(=O)c3c(O)cc(O)cc3O2)cc1O` [Hesperetin], the “UCP1 expression in comparison with flavonoid alone” value (“UCP1 expression in comparison” for short) [1] was “No statistical difference”.

In the case of `O=C1NC(c2cccc([N+](=O)[O-])c2)=CCN1c1ccccc1O` [Icilin], the “synergy for UCP1 mRNA induction” value ([1]; 0.5 μM icilin combined with Naringenin 5 μM, 7 d) is listed as “did not display synergy”, the EC50 ([9]; TRPM8 activator) is listed as ~500 nM and the “potency relative to menthol” value [9] is listed as “at least 100 fold”.

For `CC1CCC(C(C)C)C(O)C1` (stereo not drawn) [Menthol], the “induction of UCP1 or other beige markers” value ([1]; Menthol alone, human adipocyte cultures) is given as “No induction”, the “increase in UCP1 expression” value ([10]; Menthol 100 μM overnight) is given as 1.5 fold and the “increase in UCP1 expression” value ([10]; Menthol 100 μM, cells exposed to 26° C.) is given as 40 fold. For the same molecule, the Ucp1 expression [11] was “concentration-dependent increase”, the Cmax ([7]; menthol, read-out: Cmax) was 20 µM and the Cmax ([7]; menthol, read-out: high end of serum Cmax) was 30 µM.

For `COc1cc(CN(CCN)C(=O)OC(C)c2ccccc2)ccc1OCc1ccccc1` (stereo not drawn) [PBMC], the “Naringenin-stimulated UCP1 expression in presence of inhibitor” value ([1]; inhibitor during 5 μM Naringenin treatment for 3 days) was “prevented Naringenin-stimulated UCP1 expression”.

For `O=c1cc(-c2ccc(O)cc2)oc2cc(O)cc(O)c12` [apigenin], the “UCP1 expression in comparison” value [1] was “No statistical difference”.

In the case of `O=c1c(O)c(-c2ccc(O)c(O)c2)oc2cc(O)cc(O)c12` [quercetin], the “UCP1 expression in comparison” value [1] is reported as “No statistical difference”.
